≈ marks a conversion by molar mass, not a printed value.
Tests used:
Assay type in all cases: functional
Aspergillus niger [1] = experiment: Antifungal activity against Aspergillus niger at 50 ug/ml after 72 hrs by agar well diffusion method; conditions: read-out: DIZ
Fusarium oxysporum [2] = experiment: Antifungal activity against Fusarium oxysporum at 500 ug/ml after 72 hrs by agar well diffusion method; conditions: read-out: DIZ
Fusarium oxysporum [3] = experiment: Antifungal activity against Fusarium oxysporum at 300 ug/ml after 72 hrs by agar well diffusion method; conditions: read-out: DIZ
Fusarium oxysporum [4] = experiment: Antifungal activity against Fusarium oxysporum at 200 ug/ml after 72 hrs by agar well diffusion method; conditions: read-out: DIZ
Fusarium oxysporum [5] = experiment: Antifungal activity against Fusarium oxysporum at 100 ug/ml after 72 hrs by agar well diffusion method; conditions: read-out: DIZ
Fusarium oxysporum [6] = experiment: Antifungal activity against Fusarium oxysporum at 50 ug/ml after 72 hrs by agar well diffusion method; conditions: read-out: DIZ
Rhizoctonia solani [7] = experiment: Antifungal activity against Rhizoctonia solani at 500 ug/ml after 72 hrs by agar well diffusion method; conditions: read-out: DIZ
Rhizoctonia solani [8] = experiment: Antifungal activity against Rhizoctonia solani at 300 ug/ml after 72 hrs by agar well diffusion method; conditions: read-out: DIZ
Rhizoctonia solani [9] = experiment: Antifungal activity against Rhizoctonia solani at 200 ug/ml after 72 hrs by agar well diffusion method; conditions: read-out: DIZ
Rhizoctonia solani [10] = experiment: Antifungal activity against Rhizoctonia solani at 100 ug/ml after 72 hrs by agar well diffusion method; conditions: read-out: DIZ
Rhizoctonia solani [11] = experiment: Antifungal activity against Rhizoctonia solani at 50 ug/ml after 72 hrs by agar well diffusion method; conditions: read-out: DIZ
Bacillus subtilis [12] = experiment: Antibacterial activity against Bacillus subtilis at 500 ug/ml after 24 hrs by agar well diffusion method; conditions: read-out: DIZ
Bacillus subtilis [13] = experiment: Antibacterial activity against Bacillus subtilis at 300 ug/ml after 24 hrs by agar well diffusion method; conditions: read-out: DIZ
Bacillus subtilis [14] = experiment: Antibacterial activity against Bacillus subtilis at 200 ug/ml after 24 hrs by agar well diffusion method; conditions: read-out: DIZ
Bacillus subtilis [15] = experiment: Antibacterial activity against Bacillus subtilis at 100 ug/ml after 24 hrs by agar well diffusion method; conditions: read-out: DIZ
Bacillus subtilis [16] = experiment: Antibacterial activity against Bacillus subtilis at 50 ug/ml after 24 hrs by agar well diffusion method; conditions: read-out: DIZ
Staphylococcus aureus [17] = experiment: Antibacterial activity against Staphylococcus aureus ATCC 6538 at 500 ug/ml after 24 hrs by agar well diffusion method; conditions: ATCC 6538, 24 h, read-out: DIZ
Staphylococcus aureus [18] = experiment: Antibacterial activity against Staphylococcus aureus ATCC 6538 at 300 ug/ml after 24 hrs by agar well diffusion method; conditions: ATCC 6538, 24 h, read-out: DIZ
Staphylococcus aureus [19] = experiment: Antibacterial activity against Staphylococcus aureus ATCC 6538 at 200 ug/ml after 24 hrs by agar well diffusion method; conditions: ATCC 6538, 24 h, read-out: DIZ
Staphylococcus aureus [20] = experiment: Antibacterial activity against Staphylococcus aureus ATCC 6538 at 100 ug/ml after 24 hrs by agar well diffusion method; conditions: ATCC 6538, 24 h, read-out: DIZ
Escherichia coli [21] = experiment: Antibacterial activity against Escherichia coli ATCC 8739 at 300 ug/ml after 24 hrs by agar well diffusion method; conditions: ATCC 8739, 24 h, read-out: DIZ
Escherichia coli [22] = experiment: Antibacterial activity against Escherichia coli ATCC 8739 at 200 ug/ml after 24 hrs by agar well diffusion method; conditions: ATCC 8739, 24 h, read-out: DIZ
Escherichia coli [23] = experiment: Antibacterial activity against Escherichia coli ATCC 8739 at 100 ug/ml after 24 hrs by agar well diffusion method; conditions: ATCC 8739, 24 h, read-out: DIZ
Escherichia coli [24] = experiment: Antibacterial activity against Escherichia coli ATCC 8739 at 50 ug/ml after 24 hrs by agar well diffusion method; conditions: ATCC 8739, 24 h, read-out: DIZ
Klebsiella pneumoniae [25] = experiment: Antibacterial activity against Klebsiella pneumoniae at 500 ug/ml after 24 hrs by agar well diffusion method; conditions: read-out: DIZ
Klebsiella pneumoniae [26] = experiment: Antibacterial activity against Klebsiella pneumoniae at 300 ug/ml after 24 hrs by agar well diffusion method; conditions: read-out: DIZ
Klebsiella pneumoniae [27] = experiment: Antibacterial activity against Klebsiella pneumoniae at 200 ug/ml after 24 hrs by agar well diffusion method; conditions: read-out: DIZ
Klebsiella pneumoniae [28] = experiment: Antibacterial activity against Klebsiella pneumoniae at 50 ug/ml after 24 hrs by agar well diffusion method; conditions: read-out: DIZ
Escherichia coli [29] = experiment: Antibacterial activity against Escherichia coli ATCC 8739 at 500 ug/ml after 24 hrs by agar well diffusion method; conditions: ATCC 8739, 24 h, read-out: DIZ
Klebsiella pneumoniae [30] = experiment: Antibacterial activity against Klebsiella pneumoniae at 100 ug/ml after 24 hrs by agar well diffusion method; conditions: read-out: DIZ
Staphylococcus aureus [31] = experiment: Antibacterial activity against Staphylococcus aureus ATCC 6538 at 50 ug/ml after 24 hrs by agar well diffusion method; conditions: ATCC 6538, 24 h, read-out: DIZ
Aspergillus flavus [32] = experiment: Antifungal activity against Aspergillus flavus at 50 ug/ml after 72 hrs by agar well diffusion method; conditions: read-out: DIZ
Aspergillus flavus [33] = experiment: Antifungal activity against Aspergillus flavus at 100 ug/ml after 72 hrs by agar well diffusion method; conditions: read-out: DIZ
Aspergillus flavus [34] = experiment: Antifungal activity against Aspergillus flavus after 72 hrs by agar well diffusion method
Aspergillus niger [35] = experiment: Antifungal activity against Aspergillus niger after 72 hrs by agar well diffusion method
Fusarium oxysporum [36] = experiment: Antifungal activity against Fusarium oxysporum after 72 hrs by agar well diffusion method
Rhizoctonia solani [37] = experiment: Antifungal activity against Rhizoctonia solani after 72 hrs by agar well diffusion method
Bacillus subtilis [38] = experiment: Antibacterial activity against Bacillus subtilis after 24 hrs by agar well diffusion method
Staphylococcus aureus [39] = experiment: Antibacterial activity against Staphylococcus aureus ATCC 6538 after 24 hrs by agar well diffusion method; conditions: ATCC 6538, 24 h
Escherichia coli [40] = experiment: Antibacterial activity against Escherichia coli ATCC 8739 after 24 hrs by agar well diffusion method; conditions: ATCC 8739, 24 h
Klebsiella pneumoniae [41] = experiment: Antibacterial activity against Klebsiella pneumoniae after 24 hrs by agar well diffusion method
Aspergillus flavus [42] = experiment: Antifungal activity against Aspergillus flavus at 500 ug/ml after 72 hrs by agar well diffusion method; conditions: read-out: DIZ
Aspergillus flavus [43] = experiment: Antifungal activity against Aspergillus flavus at 300 ug/ml after 72 hrs by agar well diffusion method; conditions: read-out: DIZ
Aspergillus flavus [44] = experiment: Antifungal activity against Aspergillus flavus at 200 ug/ml after 72 hrs by agar well diffusion method; conditions: read-out: DIZ
Aspergillus niger [45] = experiment: Antifungal activity against Aspergillus niger at 500 ug/ml after 72 hrs by agar well diffusion method; conditions: read-out: DIZ
Aspergillus niger [46] = experiment: Antifungal activity against Aspergillus niger at 300 ug/ml after 72 hrs by agar well diffusion method; conditions: read-out: DIZ
Aspergillus niger [47] = experiment: Antifungal activity against Aspergillus niger at 200 ug/ml after 72 hrs by agar well diffusion method; conditions: read-out: DIZ
Aspergillus niger [48] = experiment: Antifungal activity against Aspergillus niger at 100 ug/ml after 72 hrs by agar well diffusion method; conditions: read-out: DIZ

CCn1cc(C=C2C(=O)OC(C)(C)OC2=O)c2cc(OC)ccc21
zone of inhibition at 50 µg/mL (Aspergillus niger [1]): 6 mm | zone of inhibition at 500 µg/mL (Fusarium oxysporum [2]): 29 mm | zone of inhibition at 300 µg/mL (Fusarium oxysporum [3]): 21 mm | zone of inhibition at 200 µg/mL (Fusarium oxysporum [4]): 16 mm | zone of inhibition at 100 µg/mL (Fusarium oxysporum [5]): 12 mm | zone of inhibition at 50 µg/mL (Fusarium oxysporum [6]): 7 mm | zone of inhibition at 500 µg/mL (Rhizoctonia solani [7]): 29 mm | zone of inhibition at 300 µg/mL (Rhizoctonia solani [8]): 21 mm | zone of inhibition at 200 µg/mL (Rhizoctonia solani [9]): 16 mm | zone of inhibition at 100 µg/mL (Rhizoctonia solani [10]): 12 mm | zone of inhibition at 50 µg/mL (Rhizoctonia solani [11]): 7 mm | zone of inhibition at 500 µg/mL (Bacillus subtilis [12]): 21 mm | zone of inhibition at 300 µg/mL (Bacillus subtilis [13]): 13 mm | zone of inhibition at 200 µg/mL (Bacillus subtilis [14]): 10 mm | zone of inhibition at 100 µg/mL (Bacillus subtilis [15]): 8 mm | zone of inhibition at 50 µg/mL (Bacillus subtilis [16]): 4 mm | zone of inhibition at 500 µg/mL (Staphylococcus aureus [17]): 22 mm | zone of inhibition at 300 µg/mL (Staphylococcus aureus [18]): 14 mm | zone of inhibition at 200 µg/mL (Staphylococcus aureus [19]): 11 mm | zone of inhibition at 100 µg/mL (Staphylococcus aureus [20]): 9 mm | zone of inhibition at 300 µg/mL (Escherichia coli [21]): 16 mm | zone of inhibition at 200 µg/mL (Escherichia coli [22]): 13 mm | zone of inhibition at 100 µg/mL (Escherichia coli [23]): 10 mm | zone of inhibition at 50 µg/mL (Escherichia coli [24]): 6 mm | zone of inhibition at 500 µg/mL (Klebsiella pneumoniae [25]): 31 mm | zone of inhibition at 300 µg/mL (Klebsiella pneumoniae [26]): 20 mm | zone of inhibition at 200 µg/mL (Klebsiella pneumoniae [27]): 15 mm | zone of inhibition at 50 µg/mL (Klebsiella pneumoniae [28]): 8 mm | zone of inhibition at 500 µg/mL (Escherichia coli [29]): 26 mm | zone of inhibition at 100 µg/mL (Klebsiella pneumoniae [30]): 13 mm | zone of inhibition at 50 µg/mL (Staphylococcus aureus [31]): 4 mm | zone of inhibition at 50 µg/mL (Aspergillus flavus [32]): 4 mm | zone of inhibition at 100 µg/mL (Aspergillus flavus [33]): 9 mm | MIC (Aspergillus flavus [34]): 40 µg/mL (≈ 121 µM) | MIC (Aspergillus niger [35]): 40 µg/mL (≈ 121 µM) | MIC (Fusarium oxysporum [36]): 35 µg/mL (≈ 106 µM) | MIC (Rhizoctonia solani [37]): 35 µg/mL (≈ 106 µM) | MIC (Bacillus subtilis [38]): 30 µg/mL (≈ 91.1 µM) | MIC (Staphylococcus aureus [39]): 25 µg/mL (≈ 75.9 µM) | MIC (Escherichia coli [40]): 15 µg/mL (≈ 45.5 µM) | MIC (Klebsiella pneumoniae [41]): 15 µg/mL (≈ 45.5 µM) | zone of inhibition at 500 µg/mL (Aspergillus flavus [42]): 23 mm | zone of inhibition at 300 µg/mL (Aspergillus flavus [43]): 15 mm | zone of inhibition at 200 µg/mL (Aspergillus flavus [44]): 12 mm | zone of inhibition at 500 µg/mL (Aspergillus niger [45]): 25 mm | zone of inhibition at 300 µg/mL (Aspergillus niger [46]): 18 mm | zone of inhibition at 200 µg/mL (Aspergillus niger [47]): 14 mm | zone of inhibition at 100 µg/mL (Aspergillus niger [48]): 10 mm

Reference: ChEMBL document CHEMBL2429768, “Eco-friendly synthesis and antimicrobial activities of substituted-5-(1H-indol-3-yl)methylene)-2,2-dimethyl-1,3-dioxane-4,6-dione derivatives” (2013)
